In patent US12037322B2, “AHR agonists” (Eli Lilly and Company, priority 2021, dated 2024):

The molecules below were run against T1, hAHR (Homo sapiens, UniProt P35869) (assay: hAHR nuclear translocation assay). Details: Jump-In T-REx HEK293 cells expressing AhR-EGFP; 45 min incubation; ratio of EGFP intensity in nuclear over cytosol; 20-point curve.
T1 construct: expressed in transfected cells
T1 sequence (P35869 11-848): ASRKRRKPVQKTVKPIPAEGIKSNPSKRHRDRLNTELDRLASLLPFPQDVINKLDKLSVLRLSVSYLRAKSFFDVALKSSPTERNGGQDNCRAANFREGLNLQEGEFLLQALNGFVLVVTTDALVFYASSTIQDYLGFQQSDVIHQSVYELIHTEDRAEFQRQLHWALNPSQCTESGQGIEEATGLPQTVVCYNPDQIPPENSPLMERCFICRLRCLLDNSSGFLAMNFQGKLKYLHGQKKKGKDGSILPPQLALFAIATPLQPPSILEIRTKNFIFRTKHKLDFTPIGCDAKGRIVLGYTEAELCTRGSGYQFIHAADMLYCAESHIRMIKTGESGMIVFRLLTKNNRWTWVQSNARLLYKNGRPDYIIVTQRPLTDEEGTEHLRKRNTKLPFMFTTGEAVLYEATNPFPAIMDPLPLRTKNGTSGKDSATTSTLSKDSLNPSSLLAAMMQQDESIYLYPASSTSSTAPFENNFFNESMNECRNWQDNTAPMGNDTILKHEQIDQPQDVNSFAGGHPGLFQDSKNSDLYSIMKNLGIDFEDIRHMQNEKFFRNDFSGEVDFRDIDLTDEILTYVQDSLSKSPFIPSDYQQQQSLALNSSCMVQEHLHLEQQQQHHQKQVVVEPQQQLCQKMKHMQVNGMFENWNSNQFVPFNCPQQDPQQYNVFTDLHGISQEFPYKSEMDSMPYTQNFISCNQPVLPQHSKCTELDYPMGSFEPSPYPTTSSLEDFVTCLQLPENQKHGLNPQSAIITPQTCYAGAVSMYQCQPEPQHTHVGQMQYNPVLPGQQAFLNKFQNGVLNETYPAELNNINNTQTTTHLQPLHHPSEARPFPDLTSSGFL
Type: cell-based
Experimental: Stable cell lines were established using Jump-In™ T-REx™ HEK293 Retargeting Kit (Life Technologies). hAhR cDNA was cloned into the pJTI R4 CMV-TO EGFP vector. The EGFP was cloned to the C-terminal of AHR to form AhR-EGFP chimera. The pJTI R4 CMV-TO AhR-EGFP vector was transfected using FuGENE® HD into Jump-In™ T-REx™ HEK293 cells. Transfected cells were selected using 2.5 mg/ml G418 for 10 to 14 days, then expanded, harvested, and suspended in freeze media (FBS with 8% DMSO) at 2×10^7 cells/mL, and aliquots were stored in liquid nitrogen. One day before the assay date, cells were thawed and resuspended in DMEM with 5% FBS in the presence of 1 μg/mL Doxycycline and plated into ploy-L-Lysine coated […]-384 ULTRA Microplates (Perkin Elmer) at 12,000 to 15,000 cells per well and incubated at 37° C. and 5% CO2 overnight. On the assay date, compound was serially diluted (1:2) into 384-well nunc plates with DMSO using acoustic dispensing (ECHO). The dose response was a 20-point curve. Compound was resuspended in 40 μL of DMEM plus 0.1% BSA. The culture media was damped and 25 μL of DMEM plus 0.1% BSA was added, then 25 μL of compound in DMEM plus 0.1% BSA was added into cell plates. Cells were incubated with compounds at 37° C. and 5% CO2 for 45 min.
The final DMSO concentration was 0.2%. The media was damped after 45 minutes incubation. The cells were fixed with 40 μL of cold MeOH (−20° C.) for 20 min. The MeOH was damped and 50 μL of DPBS containing 1 μg/mL Hochst was added into the cell plates. The intensity of EGFP was quantitated by using OPERA PHENIX® or Operetta™ high content image system (Perkin Elmer) with 20× Water Objective and five field per well. The ratio of EGFP fluorescent intensity in nuclear over cytosol was analyzed using a 4-parameter nonlinear logistic equation to determine the potency of AhR agonists.

Structure (SMILES)	EC50 [nM]
CC1CCc2c1c(O)c(C(=O)Nc1ncco1)c(=O)n2C (single isomer, unassigned) [Example 34, 4-Hydroxy-1,5-dimethyl-N-oxazol-2-yl-2-oxo-6,7-dihydro-5H-cyclopenta[b]pyridine-3-carboxamide]	7.46
CC1CCc2c1c(O)c(C(=O)Nc1ncco1)c(=O)n2C (single isomer, unassigned) [Example 35, 4-Hydroxy-1,5-dimethyl-N-oxazol-2-yl-2-oxo-6,7-dihydro-5H-cyclopenta[b]pyridine-3-carboxamide]	4.42
CC1CCc2c1c(O)c(C(=O)Nc1ccns1)c(=O)n2C (single isomer, unassigned) [Example 36, 4-Hydroxy-N-isothiazol-5-yl-1,5-dimethyl-2-oxo-6,7-dihydro-5H-cyclopenta[b]pyridine-3-carboxamide]	2.78
CC1CCc2c1c(O)c(C(=O)Nc1ccns1)c(=O)n2C (single isomer, unassigned) [Example 37, 4-Hydroxy-N-isothiazol-5-yl-1,5-dimethyl-2-oxo-6,7-dihydro-5H-cyclopenta[b]pyridine-3-carboxamide]	1.97
CC1CCc2c1c(O)c(C(=O)Nc1ccsn1)c(=O)n2C (single isomer, unassigned) [Example 38, 4-Hydroxy-N-isothiazol-3-yl-1,5-dimethyl-2-oxo-6,7-dihydro-5H-cyclopenta[b]pyridine-3-carboxamide]	1.01
CC1CCc2c1c(O)c(C(=O)Nc1ccsn1)c(=O)n2C (single isomer, unassigned) [Example 39, 4-Hydroxy-N-isothiazol-3-yl-1,5-dimethyl-2-oxo-6,7-dihydro-5H-cyclopenta[b]pyridine-3-carboxamide]	0.378
CC1CCc2c1c(O)c(C(=O)Nc1cnsc1)c(=O)n2C (single isomer, unassigned) [Example 40, 4-Hydroxy-N-isothiazol-4-yl-1,5-dimethyl-2-oxo-6,7-dihydro-5H-cyclopenta[b]pyridine-3-carboxamide]	2.37
CC1CCc2c1c(O)c(C(=O)Nc1cnsc1)c(=O)n2C (single isomer, unassigned) [Example 41, 4-Hydroxy-N-isothiazol-4-yl-1,5-dimethyl-2-oxo-6,7-dihydro-5H-cyclopenta[b]pyridine-3-carboxamide]	2.65
CC1CCc2c1cc(C(=O)Nc1ccc(F)cn1)c(=O)n2C (single isomer, unassigned) [Example 56, N-(5-Fluoro-2-pyridyl)-1,5-dimethyl-2-oxo-6,7-dihydro-5H-cyclopenta[b]pyridine-3-carboxamide]	2.44
CC1CCc2c1cc(C(=O)Nc1ccc(F)cn1)c(=O)n2C (single isomer, unassigned) [Example 57, N-(5-Fluoro-2-pyridyl)-1,5-dimethyl-2-oxo-6,7-dihydro-5H-cyclopenta[b]pyridine-3-carboxamide]	1.83
CC1CCc2c1cc(C(=O)Nc1ccc(C(F)(F)F)cn1)c(=O)n2C (single isomer, unassigned) [Example 58, 1,5-Dimethyl-2-oxo-N-[5-(trifluoromethyl)-2-pyridyl]-6,7-dihydro-5H-cyclopenta[b]pyridine-3-carboxamide]	3.59
CC1CCc2c1cc(C(=O)Nc1ccc(C(F)(F)F)cn1)c(=O)n2C (single isomer, unassigned) [Example 59, 1,5-Dimethyl-2-oxo-N-[5-(trifluoromethyl)-2-pyridyl]-6,7-dihydro-5H-cyclopenta[b]pyridine-3-carboxamide]	3.59
CC1CCc2c1cc(C(=O)NC1CCCC1)c(=O)n2C (single isomer, unassigned) [Example 60, N-Cyclopentyl-1,5-dimethyl-2-oxo-6,7-dihydro-5H-cyclopenta[b]pyridine-3-carboxamide]	396
CC1CCc2c1cc(C(=O)NC1CCCC1)c(=O)n2C (single isomer, unassigned) [Example 61, N-Cyclopentyl-1,5-dimethyl-2-oxo-6,7-dihydro-5H-cyclopenta[b]pyridine-3-carboxamide]	42
CC1CCc2c1cc(C(=O)Nc1nccs1)c(=O)n2C (single isomer, unassigned) [Example 62, 1,5-Dimethyl-2-oxo-N-thiazol-2-yl-6,7-dihydro-5H-cyclopenta[b]pyridine-3-carboxamide]	1.84
CC1CCc2c1cc(C(=O)Nc1nccs1)c(=O)n2C (single isomer, unassigned) [Example 63, 1,5-Dimethyl-2-oxo-N-thiazol-2-yl-6,7-dihydro-5H-cyclopenta[b]pyridine-3-carboxamide]	2.55
CC1CCc2c1cc(C(=O)Nc1ncc(C(F)(F)F)cn1)c(=O)n2C (single isomer, unassigned) [Example 64, 1,5-Dimethyl-2-oxo-N-[5-(trifluoromethyl)pyrimidin-2-yl]-6,7-dihydro-5H-cyclopenta[b]pyridine-3-carboxamide]	1.54
CC1CCc2c1cc(C(=O)Nc1ncc(C(F)(F)F)cn1)c(=O)n2C (single isomer, unassigned) [Example 65, 1,5-Dimethyl-2-oxo-N-[5-(trifluoromethyl)pyrimidin-2-yl]-6,7-dihydro-5H-cyclopenta[b]pyridine-3-carboxamide]	1.22
CC1CCc2c1cc(C(=O)Nc1ncccn1)c(=O)n2C (single isomer, unassigned) [Example 80, 1,5-Dimethyl-2-oxo-N-pyrimidin-2-yl-6,7-dihydro-5H-cyclopenta[b]pyridine-3-carboxamide]	10.9
CC1CCc2c1cc(C(=O)Nc1ncccn1)c(=O)n2C (single isomer, unassigned) [Example 82, 1,5-Dimethyl-2-oxo-N-pyrimidin-2-yl-6,7-dihydro-5H-cyclopenta[b]pyridine-3-carboxamide]	25.1
CC1Cc2c(O)c(C(=O)Nc3ncccn3)c(=O)n(C)c2C1 (single isomer, unassigned) [Example 83, 4-Hydroxy-1,6-dimethyl-2-oxo-N-pyrimidin-2-yl-6,7-dihydro-5H-cyclopenta[b]pyridine-3-carboxamide]	233
CC1Cc2c(O)c(C(=O)Nc3ncccn3)c(=O)n(C)c2C1 (single isomer, unassigned) [Example 84, 4-Hydroxy-1,6-dimethyl-2-oxo-N-pyrimidin-2-yl-6,7-dihydro-5H-cyclopenta[b]pyridine-3-carboxamide]	8.67
CC1CCc2c1c(O)c(C(=O)Nc1ncccn1)c(=O)n2C (single isomer, unassigned) [Example 85, 4-Hydroxy-1,5-dimethyl-2-oxo-N-pyrimidin-2-yl-6,7-dihydro-5H-cyclopenta[b]pyridine-3-carboxamide]	4.1
C[C@@H]1CCc2c1c(O)c(C(=O)Nc1ncccn1)c(=O)n2C (single isomer, unassigned) [Example 86, 4-Hydroxy-1,5-dimethyl-2-oxo-N-pyrimidin-2-yl-6,7-dihydro-5H-cyclopenta[b]pyridine-3-carboxamide]	7.79
CC1Cc2c(O)c(C(=O)Nc3ccccn3)c(=O)n(C)c2C1 (single isomer, unassigned) [Example 87, 4-Hydroxy-1,6-dimethyl-2-oxo-N-(2-pyridyl)-6,7-dihydro-5H-cyclopenta[b]pyridine-3-carboxamide]	27.3
CC1Cc2c(O)c(C(=O)Nc3ccccn3)c(=O)n(C)c2C1 (single isomer, unassigned) [Example 88, 4-Hydroxy-1,6-dimethyl-2-oxo-N-(2-pyridyl)-6,7-dihydro-5H-cyclopenta[b]pyridine-3-carboxamide]	0.897
